The NIST ThermoML archive (doi:10.1021/je060271a)
± gives the expanded uncertainty stated by the source.

Details: 283.16 K, Liquid, Vibrating tube method

CCCC(=O)OCC(COC(=O)CCC)(COC(=O)CCC)COC(=O)CCC [pentaerythritol tetrabutyrate]
mass density (13019 kPa): 1066.7 ± 1.3 kg/m3 | mass density (13044 kPa): 1066.7 ± 1.3 kg/m3 | mass density (13070 kPa): 1066.6 ± 1.3 kg/m3 | mass density (13101 kPa): 1066.6 ± 1.3 kg/m3 | mass density (13127 kPa): 1066.5 ± 1.3 kg/m3 | mass density (13208 kPa): 1066.8 ± 1.3 kg/m3 | mass density (13264 kPa): 1066.8 ± 1.3 kg/m3 | mass density (13291 kPa): 1066.8 ± 1.3 kg/m3 | mass density (13317 kPa): 1066.7 ± 1.3 kg/m3 | mass density (13343 kPa): 1066.8 ± 1.3 kg/m3 | mass density (13374 kPa): 1066.8 ± 1.3 kg/m3 | mass density (13401 kPa): 1066.8 ± 1.3 kg/m3 | mass density (13427 kPa): 1066.8 ± 1.3 kg/m3 | mass density (13460 kPa): 1066.8 ± 1.3 kg/m3 | mass density (13487 kPa): 1066.9 ± 1.3 kg/m3 | mass density (13514 kPa): 1066.9 ± 1.3 kg/m3 | mass density (13541 kPa): 1066.9 ± 1.3 kg/m3 | mass density (13574 kPa): 1066.9 ± 1.3 kg/m3 | mass density (13601 kPa): 1066.9 ± 1.3 kg/m3 | mass density (13628 kPa): 1066.9 ± 1.3 kg/m3 | mass density (13661 kPa): 1067 ± 1.3 kg/m3 | mass density (13689 kPa): 1066.9 ± 1.3 kg/m3 | mass density (13722 kPa): 1067.2 ± 1.3 kg/m3 | mass density (13750 kPa): 1067 ± 1.3 kg/m3 | mass density (13778 kPa): 1067 ± 1.3 kg/m3 | mass density (13807 kPa): 1067.1 ± 1.3 kg/m3 | mass density (13841 kPa): 1067 ± 1.3 kg/m3 | mass density (13870 kPa): 1067.1 ± 1.3 kg/m3 | mass density (13927 kPa): 1067.1 ± 1.3 kg/m3 | mass density (13962 kPa): 1067 ± 1.3 kg/m3 | mass density (13990 kPa): 1067.2 ± 1.3 kg/m3 | mass density (14025 kPa): 1067.1 ± 1.3 kg/m3 | mass density (14054 kPa): 1067.1 ± 1.3 kg/m3 | mass density (14084 kPa): 1067.2 ± 1.3 kg/m3 | mass density (14113 kPa): 1067.2 ± 1.3 kg/m3 | mass density (14149 kPa): 1067.3 ± 1.3 kg/m3 | mass density (14178 kPa): 1067.2 ± 1.3 kg/m3 | mass density (14208 kPa): 1067.2 ± 1.3 kg/m3 | mass density (14245 kPa): 1067.2 ± 1.3 kg/m3 | mass density (14275 kPa): 1067.3 ± 1.3 kg/m3 | mass density (14306 kPa): 1067.5 ± 1.3 kg/m3 | mass density (14343 kPa): 1067.3 ± 1.3 kg/m3 | mass density (14374 kPa): 1067.3 ± 1.3 kg/m3 | mass density (14405 kPa): 1067.4 ± 1.3 kg/m3 | mass density (14436 kPa): 1067.4 ± 1.3 kg/m3 | mass density (14474 kPa): 1067.4 ± 1.3 kg/m3 | mass density (14504 kPa): 1067.4 ± 1.3 kg/m3 | mass density (14536 kPa): 1067.5 ± 1.3 kg/m3 | mass density (14574 kPa): 1067.4 ± 1.3 kg/m3 | mass density (14605 kPa): 1067.5 ± 1.3 kg/m3 | mass density (14638 kPa): 1067.5 ± 1.3 kg/m3 | mass density (14677 kPa): 1067.4 ± 1.3 kg/m3 | mass density (14709 kPa): 1067.5 ± 1.3 kg/m3 | mass density (14741 kPa): 1067.6 ± 1.3 kg/m3 | mass density (14774 kPa): 1067.5 ± 1.3 kg/m3 | mass density (14814 kPa): 1067.7 ± 1.3 kg/m3 | mass density (14846 kPa): 1067.6 ± 1.3 kg/m3 | mass density (14886 kPa): 1067.6 ± 1.3 kg/m3 | mass density (14919 kPa): 1067.6 ± 1.3 kg/m3 | mass density (14952 kPa): 1067.7 ± 1.3 kg/m3 | mass density (14985 kPa): 1067.6 ± 1.3 kg/m3 | mass density (15026 kPa): 1067.6 ± 1.3 kg/m3 | mass density (15059 kPa): 1067.8 ± 1.3 kg/m3 | mass density (15094 kPa): 1067.7 ± 1.3 kg/m3 | mass density (15136 kPa): 1067.7 ± 1.3 kg/m3 | mass density (15170 kPa): 1067.7 ± 1.3 kg/m3 | mass density (15205 kPa): 1067.7 ± 1.3 kg/m3 | mass density (15246 kPa): 1067.9 ± 1.3 kg/m3 | mass density (15282 kPa): 1067.9 ± 1.3 kg/m3 | mass density (15317 kPa): 1067.9 ± 1.3 kg/m3 | mass density (15359 kPa): 1067.8 ± 1.3 kg/m3 | mass density (15394 kPa): 1067.9 ± 1.3 kg/m3 | mass density (15430 kPa): 1068 ± 1.3 kg/m3 | mass density (15473 kPa): 1067.9 ± 1.3 kg/m3 | mass density (15545 kPa): 1067.9 ± 1.3 kg/m3 | mass density (15944 kPa): 1068.3 ± 1.3 kg/m3 | mass density (15983 kPa): 1068.2 ± 1.3 kg/m3 | mass density (16022 kPa): 1068.3 ± 1.3 kg/m3 | mass density (16069 kPa): 1068.4 ± 1.3 kg/m3 | mass density (16110 kPa): 1068.4 ± 1.3 kg/m3 | mass density (16153 kPa): 1068.4 ± 1.3 kg/m3 | mass density (16192 kPa): 1068.3 ± 1.3 kg/m3 | mass density (16240 kPa): 1068.4 ± 1.3 kg/m3 | mass density (16281 kPa): 1068.3 ± 1.3 kg/m3 | mass density (16322 kPa): 1068.3 ± 1.3 kg/m3 | mass density (16363 kPa): 1068.4 ± 1.3 kg/m3 | mass density (16414 kPa): 1068.4 ± 1.3 kg/m3 | mass density (16456 kPa): 1068.5 ± 1.3 kg/m3 | mass density (16498 kPa): 1068.5 ± 1.3 kg/m3 | mass density (16547 kPa): 1068.6 ± 1.3 kg/m3 | mass density (16580 kPa): 1068.5 ± 1.3 kg/m3 | mass density (16614 kPa): 1068.6 ± 1.3 kg/m3 | mass density (16656 kPa): 1068.6 ± 1.3 kg/m3 | mass density (16691 kPa): 1068.8 ± 1.3 kg/m3 | mass density (16726 kPa): 1068.6 ± 1.3 kg/m3 | mass density (16769 kPa): 1068.7 ± 1.3 kg/m3 | mass density (16805 kPa): 1068.8 ± 1.3 kg/m3 | mass density (16839 kPa): 1068.7 ± 1.3 kg/m3 | mass density (16871 kPa): 1068.8 ± 1.3 kg/m3 | mass density (16898 kPa): 1068.8 ± 1.3 kg/m3 | mass density (16924 kPa): 1068.6 ± 1.3 kg/m3 | mass density (16956 kPa): 1068.8 ± 1.3 kg/m3 | mass density (16983 kPa): 1068.7 ± 1.3 kg/m3 | mass density (17011 kPa): 1068.9 ± 1.3 kg/m3 | mass density (17044 kPa): 1068.9 ± 1.3 kg/m3 | mass density (17074 kPa): 1068.9 ± 1.3 kg/m3 | mass density (17104 kPa): 1068.8 ± 1.3 kg/m3 | mass density (17139 kPa): 1069 ± 1.3 kg/m3 | mass density (17162 kPa): 1068.9 ± 1.3 kg/m3 | mass density (17182 kPa): 1068.8 ± 1.3 kg/m3 | mass density (17202 kPa): 1069 ± 1.3 kg/m3 | mass density (17225 kPa): 1068.9 ± 1.3 kg/m3 | mass density (17237 kPa): 1069 ± 1.3 kg/m3 | mass density (17246 kPa): 1069 ± 1.3 kg/m3 | mass density (17257 kPa): 1069 ± 1.3 kg/m3 | mass density (17266 kPa): 1069 ± 1.3 kg/m3 | mass density (17275 kPa): 1068.9 ± 1.3 kg/m3 | mass density (17284 kPa): 1068.8 ± 1.3 kg/m3 | mass density (17295 kPa): 1069 ± 1.3 kg/m3 | mass density (17304 kPa): 1068.9 ± 1.3 kg/m3 | mass density (17313 kPa): 1069.1 ± 1.3 kg/m3 | mass density (17322 kPa): 1069.1 ± 1.3 kg/m3 | mass density (17333 kPa): 1069.1 ± 1.3 kg/m3 | mass density (17342 kPa): 1069 ± 1.3 kg/m3 | mass density (17352 kPa): 1069 ± 1.3 kg/m3 | mass density (17362 kPa): 1069.1 ± 1.3 kg/m3 | mass density (17371 kPa): 1069 ± 1.3 kg/m3 | mass density (17380 kPa): 1069.1 ± 1.3 kg/m3 | mass density (17391 kPa): 1069.1 ± 1.3 kg/m3 | mass density (17400 kPa): 1069 ± 1.3 kg/m3 | mass density (17411 kPa): 1069 ± 1.3 kg/m3 | mass density (17420 kPa): 1069 ± 1.3 kg/m3 | mass density (17429 kPa): 1069.2 ± 1.3 kg/m3 | mass density (17440 kPa): 1069.1 ± 1.3 kg/m3 | mass density (17449 kPa): 1069.1 ± 1.3 kg/m3 | mass density (17458 kPa): 1069 ± 1.3 kg/m3 | mass density (17469 kPa): 1069.1 ± 1.3 kg/m3 | mass density (17478 kPa): 1069.1 ± 1.3 kg/m3 | mass density (17487 kPa): 1069 ± 1.3 kg/m3 | mass density (17498 kPa): 1069.2 ± 1.3 kg/m3 | mass density (17508 kPa): 1069.1 ± 1.3 kg/m3 | mass density (17517 kPa): 1069.1 ± 1.3 kg/m3 | mass density (17528 kPa): 1069.1 ± 1.3 kg/m3 | mass density (17538 kPa): 1069.1 ± 1.3 kg/m3 | mass density (17547 kPa): 1069.1 ± 1.3 kg/m3 | mass density (17556 kPa): 1069.2 ± 1.3 kg/m3
